Measured values from PubChem BioAssay (NCI).
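Exposure lasted 48 hours, with cells grown in 96-well plates and compounds tested at five concentrations. Here, GI50 denotes the concentration required for 50% inhibition of growth. TGI is the concentration that stops growth completely.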

Columns and labels:
Test in all cases: inhibition of tumour cell growth, NCI panel, 48 h
[1] = system: OVCAR-3 ovarian
[2] = system: SNB-75 CNS
[3] = system: MDA-MB-468 breast
[4] = system: UO-31 renal
[5] = system: NCI/ADR-RES ovarian
[6] = system: HS 578T breast
[7] = system: RXF 393 renal
[8] = system: CAKI-1 renal
[9] = system: SN12C renal
[10] = system: MDA-MB-231 breast
[11] = system: A498 renal
[12] = system: NCI-H226 lung
[13] = system: SW-620 colon
[14] = system: HOP-92 NSCLC
[15] = system: NCI-H460 lung
[16] = system: SF-295 CNS
[17] = system: MOLT-4 leukemia
[18] = system: SK-MEL-5 melanoma
[19] = system: SR leukemia
[20] = system: MDA-MB-435
[21] = system: IGROV1 ovarian
[22] = system: UACC-62 melanoma
[23] = system: HCT-15 colon
[24] = system: DU-145 prostate
[25] = system: CCRF-CEM leukemia
[26] = system: HL-60(TB) leukemia
[27] = system: SK-MEL-2 melanoma
[28] = system: UACC-257 melanoma
[29] = system: MALME-3M melanoma
[30] = system: M14 melanoma
[31] = system: HT29 colon
[32] = system: OVCAR-4 ovarian
[33] = system: LOX IMVI melanoma
[34] = system: HOP-62 NSCLC
[35] = system: NCI-H522 lung
[36] = system: SNB-19 CNS
[37] = system: A549 NSCLC
[38] = system: SK-MEL-28 melanoma
[39] = system: NCI-H23 lung
[40] = system: ACHN renal
[41] = system: TK-10 renal
[42] = system: 786-0 renal
[43] = system: OVCAR-8 ovarian
[44] = system: BT-549 breast
[45] = system: SK-OV-3 ovarian
[46] = system: EKVX NSCLC
[47] = system: SF-268 CNS
[48] = system: HCC-2998 colon
[49] = system: PC-3 prostate
[50] = system: U251 CNS
[51] = system: HCT-116 colon
[52] = system: OVCAR-5 ovarian
[53] = system: T-47D breast
[54] = system: COLO 205 colon
[55] = system: MCF7 breast
[56] = system: KM12 colon
[57] = system: K-562 leukemia
[58] = system: SF-539 CNS
[59] = system: RPMI-8226 leukemia

Work on `Cc1ccc(C(C)C)cc1Oc1cccc(-c2c(-c3ccc(C(F)(F)F)cc3)ncn2C2CCNCC2)n1` yielded a GI50 [1] of 1800 nM, a TGI [1] of 3.28 µM and a GI50 [2] of 1300 nM. For the same molecule, the TGI [2] was 2.68 µM, the GI50 [3] was 1.33 µM and the TGI [3] was 2.73 µM. The GI50 [4] was 1.33 µM, the TGI [4] was 2.63 µM and the GI50 [5] was 1.6 µM. The TGI [5] was 3.19 µM, the GI50 [6] was 1680 nM and the TGI [6] was 3.67 µM. The GI50 [7] was 1340 nM, the TGI [7] was 2.72 µM and the GI50 [8] was 1420 nM. For the same molecule, the TGI [8] was 2.85 µM, the GI50 [9] was 1350 nM and the TGI [9] was 2.66 µM. It also gave a GI50 [10] of 1480 nM, a TGI [10] of 2.81 µM and a GI50 [11] of 1570 nM. The TGI [11] was 3.05 µM, the GI50 [12] was 1480 nM and the TGI [12] was 3.01 µM. The GI50 [13] was 1.47 µM, the TGI [13] was 2.91 µM and the GI50 [14] was 1350 nM. It also gave a TGI [14] of 2.84 µM, a GI50 [15] of 1630 nM and a TGI [15] of 3.08 µM. For the same molecule, the GI50 [16] was 1530 nM, the TGI [16] was 2.97 µM and the GI50 [17] was 1.69 µM. It also gave a TGI [17] of 4.44 µM, a GI50 [18] of 1610 nM and a TGI [18] of 2.99 µM. For the same molecule, the GI50 [19] was 1.61 µM, the TGI [19] was 4.13 µM and the GI50 [20] was 1700 nM. The TGI [20] was 3.19 µM, the GI50 [21] was 1.34 µM and the TGI [21] was 2.67 µM. For the same molecule, the GI50 [22] was 1440 nM, the TGI [22] was 2.76 µM and the GI50 [23] was 1.36 µM. It also gave a TGI [23] of 2.69 µM, a GI50 [24] of 1680 nM and a TGI [24] of 3.1 µM. The GI50 [25] was 2.26 µM, the TGI [25] was 27.9 µM and the GI50 [26] was 1050 nM. It also gave a TGI [26] of 3.36 µM, a GI50 [27] of 1.82 µM and a TGI [27] of 3.47 µM. It also gave a GI50 [28] of 1750 nM, a TGI [28] of 3.4 µM and a GI50 [29] of 1430 nM. The TGI [29] was 2.77 µM.
For `COc1ccc(NC(=O)CSc2nnc(-c3ccc(-c4nc5ccc(Cl)cc5[nH]4)cc3)o2)cc1`, the GI50 [30] was 3.74 µM, the TGI [30] was 17.2 µM and the GI50 [1] was 3720 nM. The TGI [1] was 14 µM, the GI50 [31] was 4.9 µM and the TGI [31] was 23.3 µM. It also gave a GI50 [2] of 1420 nM, a TGI [2] of 3.86 µM and a GI50 [3] of 15 µM. The TGI [3] was 38.4 µM, the GI50 [4] was 10.9 µM and the TGI [4] was 23.1 µM. For the same molecule, the GI50 [32] was 3.02 µM, the TGI [32] was 10 µM and the GI50 [33] was 2290 nM. For the same molecule, the TGI [33] was 6.68 µM, the GI50 [34] was 2520 nM and the TGI [34] was 5.37 µM. For the same molecule, the GI50 [5] was 10.2 µM, the TGI [5] was 42.9 µM and the GI50 [35] was 2110 nM. For the same molecule, the TGI [35] was 8.03 µM, the GI50 [6] was 2280 nM and the TGI [6] was 7.23 µM. The GI50 [7] was 2300 nM, the TGI [7] was 5.61 µM and the GI50 [8] was 1540 nM. The TGI [8] was 3.38 µM, the GI50 [9] was 3270 nM and the TGI [9] was 16.3 µM. The GI50 [36] was 2540 nM, the TGI [36] was 7.59 µM and the GI50 [37] was 2440 nM. It also gave a TGI [37] of 10.7 µM, a GI50 [38] of 1960 nM and a TGI [38] of 5.79 µM. It also gave a GI50 [10] of 3770 nM, a TGI [10] of 13.8 µM and a GI50 [11] of 4260 nM. It also gave a TGI [11] of 16 µM, a GI50 [39] of 2970 nM and a TGI [39] of 11.4 µM. The GI50 [40] was 2690 nM, the TGI [40] was 11.6 µM and the GI50 [12] was 1940 nM. It also gave a TGI [12] of 5.19 µM, a GI50 [41] of 16.5 µM and a TGI [41] of 30.1 µM. For the same molecule, the GI50 [13] was 4.54 µM, the TGI [13] was 20.6 µM and the GI50 [14] was 2620 nM. For the same molecule, the TGI [14] was 10.6 µM, the GI50 [15] was 1350 nM and the TGI [15] was 4.16 µM. For the same molecule, the GI50 [42] was 1740 nM, the TGI [42] was 3.56 µM and the GI50 [16] was 1360 nM. For the same molecule, the TGI [16] was 4.05 µM, the GI50 [17] was 6.46 µM and the TGI [17] was > 100 µM. It also gave a GI50 [43] of 3.58 µM, a TGI [43] of 26 µM and a GI50 [18] of 3020 nM. For the same molecule, the TGI [18] was 11.8 µM, the GI50 [44] was 2750 nM and the TGI [44] was 6.12 µM. The GI50 [45] was 2870 nM, the TGI [45] was 7.61 µM and the GI50 [46] was 2670 nM. For the same molecule, the TGI [46] was 13.3 µM, the GI50 [19] was 10.3 µM and the TGI [19] was > 100 µM. It also gave a GI50 [20] of 1870 nM, a TGI [20] of 8.03 µM and a GI50 [21] of 12.4 µM. It also gave a TGI [21] of 25.3 µM, a GI50 [22] of 3810 nM and a TGI [22] of 15.3 µM. The GI50 [23] was 7.77 µM, the TGI [23] was 84.2 µM and the GI50 [24] was 2290 nM. For the same molecule, the TGI [24] was 5.61 µM, the GI50 [47] was 2220 nM and the TGI [47] was 5.48 µM. The GI50 [48] was 43.5 µM, the TGI [48] was > 100 µM and the GI50 [49] was 1610 nM. The TGI [49] was 4.27 µM, the GI50 [50] was 4.83 µM and the TGI [50] was 16.5 µM. For the same molecule, the GI50 [25] was 6.86 µM, the TGI [25] was > 100 µM and the GI50 [51] was 3.91 µM. The TGI [51] was 26.7 µM, the GI50 [52] was 6.44 µM and the TGI [52] was 22 µM. It also gave a GI50 [53] of 14.2 µM, a TGI [53] of 57.9 µM and a GI50 [54] of 19 µM. The TGI [54] was 92.1 µM, the GI50 [26] was > 100000 nM and the TGI [26] was > 100 µM. It also gave a GI50 [27] of 6.96 µM, a TGI [27] of 25.4 µM and a GI50 [28] of 3830 nM. It also gave a TGI [28] of 23.6 µM, a GI50 [55] of 4.39 µM and a TGI [55] of 74.2 µM. For the same molecule, the GI50 [56] was 5.16 µM, the TGI [56] was 25.7 µM and the GI50 [57] was 2740 nM. The TGI [57] was > 100 µM, the GI50 [29] was 1900 nM and the TGI [29] was 5.63 µM. For the same molecule, the GI50 [58] was 1900 nM, the TGI [58] was 4.52 µM and the GI50 [59] was 12 µM. For the same molecule, the TGI [59] was > 100 µM.
